Patent EP0719267B1, “SECOND MESSENGER CELL SIGNALING INHIBITORS” (CELL THERAPEUTICS, INC., priority 1993, dated 1994)

Columns and labels:
[1] = test system: human smooth muscle cells (SMC); assay: Chemotaxis of smooth muscle cells to PDGF (Boyden chamber); type: cell-based; details: eight hours
Method: Figure 71 illustrates that inventive compound no. […] In the assay, cells were seeded in a Boyden chamber with or without various concentrations of inventive compound no. 58. Eight hours later, the number of cells that had migrated were scored visually. Inventive compound no.

[2] = test system: human umbilical vein endothelial cell line (HUVEC); assay: VEGF-induced proliferation of HUVEC; type: cell-based
Method: This example illustrates an investigation of inhibitory effects of compound no. 58 on Vascular Endothelial Growth Factor (VEGF)-induced proliferation in a human umbilical vein endothelial cell line (HUVEC). In this assay procedure, cells were grown in reduced serum (0.5% fetal calf serum) for 24 hours prior to stimulating with various concentrations of VEGF. […] Compound no.
As illustrated in figures 67A and 67B, inventive compound no. 58 inhibited VEGF-induced proliferation in HUVEC and EGF-induced proliferation in Swiss/3T3 cells, respectively. Procedurally, HUVEC were placed in 0.5% serum containing medium prior to stimulation with various concentrations of VEGF, with or without inventive compound no. 58 (5 µM). Twenty four hours later the cells were pulsed with ^3H-TdR and 4 hours later harvested and counted by scintillation. The IC50 for inhibition was approximately 50-100 nM. Swiss 3T3 cells were stimulated with 20 ng/ml EGF and 24 hours later harvested and counted by scintillation.

[3] = test system: HUVEC; assay: VEGF-induced HUVEC migration, Matrigel invasion assay system; type: cell-based; details: Homo sapiens, 50 ng/ml VEGF
From the text: 58. HUVEC were placed in a Matrigel invasion assay system (Becton Dickinson) and VEGF-induced migration assessed with or without varying concentrations of inventive compound no. 58.

[4] = test system: human TNFα; assay: Whole blood ex vivo assay of TNF release (ELISA); type: cell-based; details: mouse TNFα and human IL-1α, 6 hours
Method: Figure 74 illustrates that inventive compound no. […] 58 using a human whole blood ex vivo assay. In this assay, human whole blood was stimulated with mouse TNFα and human IL-1α with or without various concentrations of inventive compound no. 58. After 6 hours, the plasma was analyzed for human TNFα levels using a commercial ELISA.

[5] = test system: anti-CD3-stimulated mouse splenocytes; assay: Cytokine release from anti-CD3-stimulated splenocytes (ELISA); type: cell-based; details: 1 µM, overnight
Method: Figures 59A, 59B and 59C report assay results investigating the effect of inventive compound no. 45 on cytokine release from anti-CD3-stimulated mouse splenocytes. […] 45 (1 µM). Concentrations chosen were approximately equal to IC50 values. The supernatants were harvested and assayed for cytokine levels using commercial ELISAs for proliferation. Anti-CD3 stimulated release of IL-2, IFN-γ and IL-4 (background levels for media control were negligible). […] However, compound no. […] Compound no.

[6] = test system: IL-2 receptor beta (p70) subunit; assay: IL-2 receptor beta subunit internalization in CT-6.1 cells (flow cytometry); type: cell-based, murine; details: 20 ng/ml IL-2
Method: In figure 55, inventive compound no. […] In this assay protocol, CT-6.1 cells were starved overnight and stimulated with 20 ng/ml IL-2. At various times following IL-2 stimulation, cells were rapidly suspended in ice cold PBS and stained using a fluoresceinated monoclonal recognizing the beta subunit of the IL-2 receptor and cell surface expression analyzed by flow cytometry. Figure 55 is a plot of mean fluorescence versus time (in minutes) following IL-2 addition, illustrating that IL-2r beta subunit was rapidly internalized following IL-2 addition with cell surface expression remaining low for 6 hours. Inventive compound no.

[7] = test system: murine splenocytes; assay: Splenocytes stimulated with anti-CD3 and anti-CD28 antibodies: proliferation and cytokine release; type: cell-based
From the text: Figures 58A and 58B illustrate that inventive compound no. […] Murine splenocytes were stimulated with a mixture of anti-CD3 and anti-CD28 monoclonal antibodies. Inventive compound no.
Figures 58C and 58D illustrate that compound no. […] Procedurally, murine splenocytes were stimulated with a mixture of anti-CD3/CD28 antibodies. Inventive compound no. […] Addition of an anti-IL-2 receptor alpha subunit antibody and an anti-IL-2 receptor beta subunit antibody to the cultures inhibited both proliferation and the release of IFN-γ (figure 60D).

[8] = test system: human mixed leukocyte reaction (MLR); assay: Mixed leukocyte reaction (MLR), two HLA disparate individuals; type: cell-based; details: 144 h, 6 days co-culture
Method: Figures 50A and 50B illustrate that compound no. 45 inhibits a murine mixed tumor lymophocyte culture (MTLC) and a human mixed leukocyte reaction (MLR). In the MTLC, splenocytes were stimulated (co-culture) with an alloantigen, B cell tumor target cell line (2PK3) in the presence or absence of compound no. 45. Cells were stimulated for 3 days, ^3H-TdR was added and the cells were harvested 4 hours later. Incorporation of ^3H-TdR was determined by liquid scintillation. Background counts were 1000-1200 CPM. For the human MLR, purified peripheral lymphocytes from two HLA disparate individuals were co-cultured for 6 days with or without compound no. 45. On the 7th day the cultures were pulsed with ^3HTdR for 24 hours and counted by scintillation.

[9] = test system: 72 kD MMP; assay: Metalloproteinase production in TNF-α stimulated THP-1 cells (zymogram); type: cell-based, human; details: 2.5 µM, TNF-α 18 hours
Method: (§1) Another assay measures an ability of the inventive compounds, as represented by compound no. 50, to inhibit metalloproteinase production in cancer cells. In the assay protocol, THP-1 human leukemia cells (1-2 x 10^6/35 mm dish) were plated in RPMI medium with 0.5% serum. Inventive compound no. 50 was added at 2.5 µM. Following incubation for 1 hour, TNF-α was added and incubated for 18 hours. The supernatants from control and treated plates were collected and protease activity was determined in gelatin gels (zymogram) after electrophoretic protein separation. […] The presence of compound no. […] Compound no. 50, representative of compounds of the invention, is capable of substantially reducing metastatic potential of cancer cells by blocking metalloprotease production.

[10] = test system: 92 kD matrix metalloprotease (MMP); assay: as above; type: cell-based, human; details: 2.5 µM, TNF-α 18 hours
Method: as §1

## COc1cc(CNCC(O)CCCCCCCCCn2c(=O)c3c(ncn3C)n(C)c2=O)cc(OC)c1OC (stereo not drawn) [compound no. 58, 1-[11-(3,4,5-Trimethoxybenzylamino)-10-hydroxyundecyl]-3,7-dimethylxanthine]
[1]
  PDGF-directed chemotaxis: had no effect on PDGF-directed SMC chemotaxis
[2]; 5 µM
  inhibition of VEGF-induced proliferation: inhibited VEGF-induced proliferation at all concentrations of VEGF tested
[2]; Homo sapiens, HUVEC, VEGF, 0.5% serum
  IC50: 50 to 100 nM
[3]
  IC50: 100 to 200 nM
[4]
  TNF release: inhibited TNF release

## CCCCCCCCNCC(O)CCCCCCCCCn1c(=O)c2c(ncn2C)n(C)c1=O (stereo not drawn) [compound no. 45]
[5]
  IFN-γ release: drastically inhibited IFN-γ release
  IL-2 release: did not significantly inhibit IL-2 release
  IL-4 release: only partially inhibits IL-4 release
[6]
  IL-2 receptor beta subunit internalization: did not inhibit this receptor internalization activity
[7]
  CD28-mediated release of IL-2: did not inhibit the CD28-mediated release of IL-2
  T cell proliferation: inhibited T cell proliferation in this system
  release of IFN-γ: inhibited release of IFN-γ
[8]
  IC50: ~500 nM

## CCCCCCCCCCCCNCC(O)CCCCCCCCCn1c(=O)c2c(ncn2C)n(C)c1=O (stereo not drawn) [compound no. 50, 1-(11-Dodecylamino-10-hydroxyundecyl)-3,7-dmethylxanthine]
[9]
  TNF-α-stimulated expression of 72 kD MMP: blocked the TNF-α-stimulated expression of both the 92 and 72 kD MMPs
[10]
  TNF-α-stimulated expression of 92 kD MMP: blocked the TNF-α-stimulated expression of both the 92 and 72 kD MMPs
